Data from US20090191193A1, “Aryl Vinyl Sulfides, Sulfones, Sulfoxides and Sulfonamides, Derivatives Thereof and Therapeutic Uses Thereof” (TEMPLE UNIVERSITY-OF THE COMMONWEALTH SYSTEM OF HIGHER …, priority 2006, published 2009).

What was measured:
[1] = tested on: K562 (chronic myelogenous leukaemia); assay: Effect on tumor cell lines, viable cell count by trypan blue exclusion (Latham et al.): K562; format: cell-based; details: Homo sapiens, K562, 96 h, K562 chronic myelogenous leukaemia cells, viable cell count 96 hours after treatment
DU145 (prostate cancer) = assay: Effect on tumor cell lines, viable cell count by trypan blue exclusion (Latham et al.): DU145; format: cell-based; details: Homo sapiens, DU-145, 96 h, DU145 prostate cancer cells, viable cell count 96 hours after treatment

Row | SMILES | IC50 [1] [µM] | IC50 (DU145 (prostate cancer)) [µM] | melting point [°C]
1 | Cc1ccc(C)c(/C=C(\C#N)S(=O)(=O)Nc2ccc(F)cc2)c1 [Example 238] | 50 to 100 | > 100 | 161 to 164
2 | N#C/C(=C\c1ccc(Br)cc1)S(=O)(=O)Cc1ccc(Cl)cc1 [Example 45] | 50 to 100 | 50 to 100 | 168 to 180
3 | N#C/C(=C\c1ccc(O)cc1O)S(=O)(=O)Cc1ccc(F)cc1 [Example 83] | 50 to 100 | 50 to 100 | 225 to 234
4 | N#C/C(=C\c1ccccc1O)S(=O)(=O)Cc1ccccc1 [Example 125] | > 100 | 50 to 100 | 135 to 138
5 | N#C/C(=C\c1c[nH]c2ccc(Br)cc12)S(=O)(=O)Nc1ccc(Br)cc1 [Example 222] | 25 to 50 | 25 to 50 | 242 to 253
6 | COc1ccc(CS(=O)(=O)/C(C#N)=C/c2c(F)c(F)c(F)c(F)c2F)cc1[N+](=O)[O-] [Example 35] | 1 | 25 | 144 to 146
7 | COc1cc(OC)c(/C=C(\C#N)S(=O)(=O)Cc2ccc(F)cc2)c(OC)c1 [Example 79] | 50 to 100 | > 100 | 182 to 192
8 | COc1cc(/C=C(\C#N)S(=O)(=O)Cc2ccccc2)cc(OC)c1OC [Example 131] | 50 to 100 | > 100 | 142 to 146
9 | COc1ccc(/C=C(\C#N)S(=O)(=O)Cc2ccccc2)c(F)c1 [Example 129] | 50 to 100 | > 100 | 161 to 166
10 | COc1ccc(NS(=O)(=O)/C(C#N)=C/c2c[nH]c3ccccc23)cc1 [Example 278] | 50 to 100 | 50 to 100 | 201 to 205
11 | COc1cc(OC)c(OC)cc1/C=C(\C#N)S(=O)(=O)Nc1ccc(F)cc1 [Example 237] | > 100 | > 100 | 184 to 186
12 | N#C/C(=C\c1ccc(Cl)cc1Cl)S(=O)(=O)Cc1ccc(F)cc1 [Example 85] | 50 to 100 | > 100 | 153 to 163
13 | N#C/C(=C\c1c(F)c(F)c(F)c(F)c1F)S(=O)(=O)Nc1ccc(F)cc1 [Example 234] | < 1 | 1 to 10 | 150 to 152
14 | Cc1ccc(NS(=O)(=O)/C(C#N)=C/c2sccc2C)c(C)c1 [Example 257] | 10 to 25 | 50 to 100 | 166 to 168
15 | CN(C)c1ccc(/C=C(\C#N)S(=O)(=O)Nc2ccc(F)cc2)cc1 [Example 233] | 50 to 100 | > 100 | 179 to 180
16 | COc1cc(OC)c(/C=C(\C#N)S(=O)(=O)Nc2ccc(Br)cc2)c(OC)c1 [Example 215] | 10 to 25 | 25 to 50 | 197 to 199
17 | COc1ccc(OC)c(/C=C(\C#N)S(=O)(=O)Cc2ccccc2)c1 [Example 135] | > 100 | > 100 | 140 to 143
18 | COc1ccc(/C=C(\C#N)S(=O)(=O)Nc2ccc(C)cc2C)c(F)c1 [Example 261] | 50 to 100 | > 100 | 142 to 144
19 | N#C/C(=C\c1ccc(F)cc1F)S(=O)(=O)Cc1ccccc1 [Example 142] | > 100 | > 100 | 133 to 135
20 | COc1ccc(/C=C(\C#N)S(=O)(=O)Cc2ccc(Cl)cc2Cl)c(OC)c1 [Example 111] | > 100 | > 100 | 165 to 170
21 | COc1cc(OC)c(/C=C(\C#N)S(=O)(=O)Cc2ccc(OC)c(N)c2)c(OC)c1 [Example 36] | 5 | 25 | 198 to 200
22 | CCOc1ccc(/C=C(\C#N)S(=O)(=O)Nc2ccc(F)cc2)cc1OC [Example 251] | > 100 | > 100 | 150 to 152
23 | COc1ccc(/C=C(\C#N)S(=O)(=O)Nc2ccc(C)cc2C)c(OC)c1OC [Example 272] | > 100 | > 100 | 124 to 125
24 | COc1ccc(/C=C(\C#N)S(=O)(=O)Cc2ccc(Cl)cc2)cc1 [Example 50] | > 100 | > 100 | 143 to 152
25 | Cc1ccc(NS(=O)(=O)/C(C#N)=C/c2ccc(C)c(C)c2)c(C)c1 [Example 264] | > 100 | > 100 | 166 to 169
26 | COc1ccc(/C=C(\C#N)S(=O)(=O)Cc2ccc(Cl)cc2Cl)cc1 [Example 99] | 50 to 100 | > 100 | 114 to 127
27 | N#C/C(=C\c1ccccc1OCc1ccccc1)S(=O)(=O)Cc1ccccc1 [Example 137] | 50 to 100 | > 100 | 93 to 97
28 | N#C/C(=C\c1ccccc1)S(=O)(=O)Cc1ccc(Cl)cc1 [Example 69] | > 100 | > 100 | 142 to 157
